Experimental data as given in US10954267B2, “Dipeptide comprising a non-proteogenic amino acid” (Novo Nordisk A/S, priority 2011, dated 2021).
Square brackets hold non-standard residues; d marks the D form. Peptide text beside a SMILES is read from it. * marks the point of attachment. Fmoc = O=C(OCC1c2ccccc2-c2ccccc21)*; Aib = CC(C)(N)C(=O)O

Assay: Storage stability studies of the dipeptide TFA salt
Assay type: physicochemical
Protocol: Fmoc-His(Trt)-Aib-OH (1 moleq., starting material) was suspended in DCM (1.5 mL/g) and TIPS (1.7 moleq.) was added. Cooled (0-10° C.) TFA (3 mL/g) was added and the mixture was stirred at ambient temperature until the reaction was completed (High-performance liquid chromatography (HPLC) conversion). DME (1 mL/g starting material) and TBME (11 mL/g starting material) was added leading to an increase in temperature. The temperature was slowly allowed to return to room temperature (rt) resulting in precipitation of a white solid. The mixture was stirred for an additional 3 hr and filtered. The precipitate was washed twice with TBME (3 mL/g starting material) and dried overnight in vacuo affording the de-tritylated dipeptide as TFA-salt in 90% yield.

stability (storage) (freeze (<−15° C.±5° C.)): more than 24 month | stability (storage) (fridge (5° C.±3° C.)): more than 24 month | stability (storage) (room temperature (20° C.±3° C.)): more than 24 month
Structure (SMILES): CC(C)(NC(=O)[C@H](Cc1c[nH]cn1)NC(=O)OCC1c2ccccc2-c2ccccc21)C(=O)O [Example 1, 2-[(S)-2-(9H-Fluoren-9-ylmethoxycarbonylamino)-3-(1H-imidazol-4-yl)-propanoylamino]-2-methyl-propanoic Acid Trifluoracatate] (Fmoc-His-[Aib]-OH)
